# Assays:
# Type in all cases: in vivo
# corn (Zea mays L.) = experiment: Test Example 4: soil treatment pot test, visually observed growth inhibition of corn (crop plant which became weeds); conditions: soil treatment one day after sowing, 28 days after treatment, read-out: Growth inhibition rate (%) of corn, Measured value
# Text: When the herbicidal activity in a case where two active ingredients are combined, is larger than the simple sum of the respective herbicidal activities of the two active ingredients (the expected activity), it is called a synergistic effect. The activity expected by the combination of two active ingredients can be calculated as follows (Colby S. R., “Weed”, vol. 15, p. 20-22, 1967). […] β: growth inhibition rate when treated with y (g/ha) of herbicide Y, E: growth inhibition rate expected when treated with x (g/ha) of herbicide X and y (g/ha) of herbicide Y. That is, when the actual growth inhibition rate (measured value) is larger than the growth inhibition rate by the above calculation (calculated value), the activity by the combination can be regarded as showing a synergistic effect. […] One day later, water dispersible granules containing flazasulfuron as an active ingredient (tradename: SHIBAGEN DF) and water dispersible granules containing amicarbazone as an active ingredient ([…]) in predetermined amounts were diluted with water (corresponding to 200 Uha) and applied for soil treatment by a small sprayer.
# [1] = tested on: green kyllinga (Cyperus brevifolius var. leiolepis); experiment: Test Example 3: foliar treatment pot test, visually observed growth inhibition of green kyllinga; conditions: 672 h, read-out: Growth inhibition rate (%) of green kyllinga, Measured value
# Text: (§1) When the herbicidal activity in a case where two active ingredients are combined, is larger than the simple sum of the respective herbicidal activities of the two active ingredients (the expected activity), it is called a synergistic effect. The activity expected by the combination of two active ingredients can be calculated as follows (Colby S. R., “Weed”, vol. 15, p. 20-22, 1967). E=α+β−(α×β÷100) where α: growth inhibition rate when treated with x (g/ha) of herbicide X,
# (§2) β: growth inhibition rate when treated with y (g/ha) of herbicide Y,
# (§3) E: growth inhibition rate expected when treated with x (g/ha) of herbicide X and y (g/ha) of herbicide Y.
# (§4) That is, when the actual growth inhibition rate (measured value) is larger than the growth inhibition rate by the above calculation (calculated value), the activity by the combination can be regarded as showing a synergistic effect.
# (§5) Growth inhibition rate (%)=0 (equivalent to the non-treated area) to 100 (complete kill)
# Upland field soil was put into a 1/1,000,000 ha pot, and tubers of green kyllinga (Cyperus brevifolius var. leiolepis) were planted. […]
# [2] = tested on: bermuda grass (Cynodon dactylon (L.) Pers.); experiment: Test Example 2: foliar treatment pot test, visually observed growth inhibition of bermuda grass; conditions: 504 h, foliar treatment at 4.0 to 4.5 leaf stage, 0.25 vol % Agral, 21 days after treatment, read-out: Growth inhibition rate (%) of bermuda grass, Measured value
# Text: as §1, §2, §3, §4, §5
# Upland field soil was put into a 1/1,000,000 ha pot, and seeds of bermuda grass (Cynodon dactylon (L.) Pers.) were sown. […]
# [3] = tested on: goosegrass (Eleusine indica (L.) Gaertn.); experiment: Test Example 1: soil treatment pot test, visually observed growth inhibition of goosegrass; conditions: soil treatment one day after sowing, 14 days after treatment, 0 = non-treated, 100 = complete kill, read-out: Growth inhibition rate (%) of goosegrass, Measured value
# Text: When the herbicidal activity in a case where two active ingredients are combined, is larger than the simple sum of the respective herbicidal activities of the two active ingredients (the expected activity), it is called a synergistic effect. The activity expected by the combination of two active ingredients can be calculated as follows (Colby S. R., “Weed”, vol. 15, p. 20-22, 1967). […] β: growth inhibition rate when treated with y (g/ha) of herbicide Y, E: growth inhibition rate expected when treated with x (g/ha) of herbicide X and y (g/ha) of herbicide Y. That is, when the actual growth inhibition rate (measured value) is larger than the growth inhibition rate by the above calculation (calculated value), the activity by the combination can be regarded as showing a synergistic effect. […] Further, in accordance with the Colby's formula, the growth inhibition rate (%) (calculated value) was calculated.
SMILES,inhibition at 2500 g/ha (corn (Zea mays L.); dose 2500 g/ha) [%],inhibition at 1250 g/ha ([1]; foliar) [%],inhibition at 150 g/ha ([2]; dose 150 g/ha) [%],inhibition at 1050 g/ha ([3]; dose 1050 g/ha) [%],inhibition at 5 g/ha (corn (Zea mays L.); dose 5 g/ha) [%],"inhibition at 5 g/ha ([1]; dose 5 g/ha, foliar treatment at 6.0 to 7.0 cm, 0.025 vol % Agral, 28 days after treatment) [%]",inhibition at 200 g/ha ([2]; dose 200 g/ha) [%],inhibition at 37.5 g/ha ([3]; dose 37.5 g/ha) [%]
"CC(C)c1nn(C(=O)NC(C)(C)C)c(=O)n1N [Amicarbazone, 4-amino-N-tertiary butyl-4,5-dihydro-3-isopropyl-5-oxo-1,2,4-1H-triazole-1-carboxamide]",87,69,0,68,,,,
"COc1cc(OC)nc(NC(=O)NS(=O)(=O)c2ncccc2C(F)(F)F)n1 [Flazasulfuron, 1-(4,6-dimethoxypyrimidin-2-yl)-3-(3-trifluoromethyl-2-pyridylsulfonyl)urea]",,,,,40,0,15,53

# — patent publication US8921272B2, “Herbicidal composition” (Ishihara Sangyo Kaisha, Ltd., priority 2011, dated 2014)
